Data reported in the supplement of paper PMC11061612.

What was measured:
Assay in all cases: combination Emax (second highest fraction inhibited in the dose matrix, 72 h); higher = more inhibition; extreme values may be limits of the assay
[1] = test system: Caov-4 (Ovarian Carcinoma)
Summary of the method: (§1)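 Bliss excess equals the observed combination effect minus the expected value EA + EB − EA·EB, where EA and EB are the effects of each agent alone. Combination Emax is the second-highest inhibition within the matrix. Inhibition was scaled from CellTiter-Glo 2.0 luminescence, with 0 set by vehicle wells and 1 by blank wells, after 72 hours of two-drug dosing of cells plated in 1536-well plates.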

D-263MG (Glioblastoma) = test system: D-263MG (Glioblastoma)
Summary of the method: as §1

EW-24 (Ewing's Sarcoma) = test system: EW-24 (Ewing's Sarcoma)
Summary of the method: as §1

[2] = test system: EoL-1-cell (Acute Myeloid Leukemia)
Summary of the method: as §1

[3] = test system: HGC-27 (Gastric Carcinoma)
Summary of the method: as §1

[4] = test system: HOP-62 (Lung Adenocarcinoma)
Summary of the method: as §1

[5] = test system: HSC-4 (Oral Cavity Carcinoma)
Summary of the method: as §1

[6] = test system: Hs-766T (Pancreatic Carcinoma)
Summary of the method: as §1

[7] = test system: LU-65 (Non-Small Cell Lung Carcinoma)
Summary of the method: as §1

[8] = test system: MIA-PaCa-2 (Pancreatic Carcinoma)
Summary of the method: as §1

[9] = test system: MLMA (Other Blood Carcinomas)
Summary of the method: as §1

NB69 (Neuroblastoma) = test system: NB69 (Neuroblastoma)
Summary of the method: as §1

[10] = test system: NCI-H358 (Lung Adenocarcinoma)
Summary of the method: as §1

[11] = test system: NCI-H727 (Other Solid Carcinomas)
Summary of the method: as §1

[12] = test system: NUGC-3 (Gastric Carcinoma)
Summary of the method: as §1

[13] = test system: OE19 (Esophageal Adenocarcinoma)
Summary of the method: as §1

[14] = test system: OSC-20 (Oral Cavity Carcinoma)
Summary of the method: as §1

PWR-1E (Non-Cancerous) = test system: PWR-1E (Non-Cancerous)
Summary of the method: as §1

[15] = test system: SW13 (Other Solid Carcinomas)
Summary of the method: as §1

YH-13 (Glioblastoma) = test system: YH-13 (Glioblastoma)
Summary of the method: as §1

Row | Structure (SMILES) | combination Emax [1] | combination Emax (D-263MG (Glioblastoma)) | combination Emax (EW-24 (Ewing's Sarcoma)) | combination Emax [2] | combination Emax [3] | combination Emax [4] | combination Emax [5] | combination Emax [6] | combination Emax [7] | combination Emax [8] | combination Emax [9] | combination Emax (NB69 (Neuroblastoma)) | combination Emax [10] | combination Emax [11] | combination Emax [12] | combination Emax [13] | combination Emax [14] | combination Emax (PWR-1E (Non-Cancerous)) | combination Emax [15] | combination Emax (YH-13 (Glioblastoma))
1 | Cn1cnc2c(F)c(Nc3ccc(Br)cc3Cl)c(C(=O)NOCCO)cc21 [Selumetinib] + C=CCn1c(=O)c2cnc(Nc3ccc(N4CCN(C)CC4)cc3)nc2n1-c1cccc(C(C)(C)O)n1 [AZD1775] (first compound max 10 µM, partner max 1 µM) | 0.764 | 0.218 | 0.334 | 1 | 0.536 | 0.487 | 0.427 | 0.487 | 0.908 | 0.767 | 0.769 | 0.944 | 0.621 | 0.614 | 0.639 | 0.28 | 0.27 | 0.34 | 0.361 | 0.329
2 | CCN(CCO)CCCOc1ccc2c(Nc3cc(CC(=O)Nc4cccc(F)c4)[nH]n3)ncnc2c1 [AZD2811] + C=CCn1c(=O)c2cnc(Nc3ccc(N4CCN(C)CC4)cc3)nc2n1-c1cccc(C(C)(C)O)n1 [AZD1775] (first compound max 1 µM, partner max 1 µM) | 0.821 | 0.51 | 0.279 | 1 | 0.896 | 0.161 | 0.367 | 0.346 | 0.56 | 0.727 | 0.981 | 0.885 | 0.416 | 0.311 | 0.539 | 0.651 | 0.369 | 0.87 | 0.463 | 0.423
3 | CS(=O)(=O)CCNCc1ccc(-c2ccc3ncnc(Nc4ccc(OCc5cccc(F)c5)c(Cl)c4)c3c2)o1 [Lapatinib] + C[C@@H](Oc1cc(-c2cnn(C3CCNCC3)c2)cnc1N)c1c(Cl)ccc(F)c1Cl [Crizotinib] (first compound max 10 µM, 7x7, partner max 10 µM) | 0.849 | 0.595 | 0.9 | 0.988 | 0.983 | 0.842 | 0.465 | 0.319 | 0.894 | 0.96 | 0.899 | 0.949 | 0.926 | 0.942 | 0.96 | 1 | 0.795 | 0.928 | 0.9 | 0.809
4 | CC(=O)c1c(C)c2cnc(Nc3ccc(N4CCNCC4)cn3)nc2n(C2CCCC2)c1=O [Palbociclib] + Cn1cnc2c(F)c(Nc3ccc(Br)cc3Cl)c(C(=O)NOCCO)cc21 [Selumetinib] (first compound max 10 µM, 7x7, partner max 10 µM) | 0.585 | 0.265 | 0.318 | 0.952 | 0.617 | 0.471 | 0.261 | 0.465 | 0.491 | 0.604 | 0.769 | 0.988 | 0.524 | 0.636 | 0.533 | 0.332 | 0.182 | 0.142 | 0.444 | 0.387
5 | COc1cccc(OCCCN)c1-c1cc(Nc2cnc(C#N)cn2)n[nH]1 [Prexasertib] + O=C(c1cc(Cc2n[nH]c(=O)c3ccccc23)ccc1F)N1CCN(C(=O)C2CC2)CC1 [Olaparib] (first compound max 1 µM, 7x7, partner max 10 µM) | 0.976 | 0.762 | 0.696 | 1 | 0.91 | 0.606 | 0.674 | 0.658 | 0.788 | 0.797 | 0.954 | 0.896 | 0.85 | 0.389 | 0.726 | 0.648 | 0.648 | 0.71 | 0.39 | 0.804
6 | COc1cccc(OCCCN)c1-c1cc(Nc2cnc(C#N)cn2)n[nH]1 [Prexasertib] + C[C@@H]1COCCN1C2=NC(=NC(=C2)C3(CC3)[S@](=N)(=O)C)C4=C5C=CNC5=NC=C4 [AZD6738] (first compound max 1 µM, 7x7, partner max 10 µM) | 0.965 | 0.797 | 0.645 | 0.996 | 0.895 | 0.648 | 0.666 | 0.658 | 0.795 | 0.682 | 0.954 | 0.91 | 0.825 | 0.72 | 0.762 | 0.935 | 0.575 | 0.973 | 0.519 | 0.793
7 | Cc1c2c(nn1C)CSCc1cc(n(C)n1)CSc1cc(c3ccccc3c1)OCCCc1c(C(=O)O)n(C)c3c-2c(Cl)ccc13 [AZD5991] + C1CN(CCC1(C(=O)N[C@@H](CCO)C2=CC=C(C=C2)Cl)N)C3=NC=NC4=C3C=CN4 [Capivasertib] (first compound max 1 µM, 7x7, partner max 3 µM) | 0.493 | 0.958 | 0.332 | 1 | 0.861 | 0.257 | 0.42 | 0.23 | 0.543 | 0.244 | 0.407 | 0.794 | 0.243 | 0.374 | 0.171 | 0.442 | 0.199 | 0.226 | 0.967 | 0.265
8 | CN(C)CCCOc1ccc(-c2ccc3ncc4c(c3c2)n(C2CCOCC2)c(=O)n4C)cn1 [AZD0156] + C[C@@H]1COCCN1C2=NC(=NC(=C2)C3(CC3)[S@](=N)(=O)C)C4=C5C=CNC5=NC=C4 [AZD6738] (first compound max 1 µM, 7x7, partner max 10 µM) | 0.744 | 0.857 | 0.552 | 0.987 | 0.862 | 0.546 | 0.685 | 0.607 | 0.76 | 0.605 | 0.79 | 0.745 | 0.656 | 0.635 | 0.727 | 0.869 | 0.334 | 0.911 | 0.469 | 0.578
9 | Cn1cnc2c(F)c(Nc3ccc(Br)cc3Cl)c(C(=O)NOCCO)cc21 [Selumetinib] + CC(C)n1c(=O)n(C)c2cnc3cc(F)c(-c4ccc(OCCCN5CCCCC5)nc4)cc3c21 [AZD1390] (first compound max 10 µM, 7x7, partner max 0.3 µM) | 0.492 | 0.204 | 0.132 | 0.762 | 0.171 | 0.409 | 0.132 | 0.475 | 0.598 | 0.535 | 0.23 | 0.836 | 0.444 | 0.614 | 0.328 | 0.128 | 0.12 | 0.131 | 0.401 | 0.131
10 | Cc1c2c(nn1C)CSCc1cc(n(C)n1)CSc1cc(c3ccccc3c1)OCCCc1c(C(=O)O)n(C)c3c-2c(Cl)ccc13 [AZD5991] + Cc1cc2ncnn2cc1Nc1ncc2c(n1)n(C1CCOCC1)c(=O)n2C [AZD7648] (first compound max 1 µM, 7x7, partner max 10 µM) | 0.57 | 0.75 | 0.258 | 1 | 0.603 | 0.281 | 0.171 | 0.398 | 0.397 | 0.354 | 0.439 | 0.779 | 0.331 | 0.277 | 0.428 | 0.424 | 0.257 | 0.247 | 0.861 | 0.351
11 | COc1cccc(OCCCN)c1-c1cc(Nc2cnc(C#N)cn2)n[nH]1 [Prexasertib] + Cc1cc2ncnn2cc1Nc1ncc2c(n1)n(C1CCOCC1)c(=O)n2C [AZD7648] (first compound max 1 µM, 7x7, partner max 10 µM) | 0.959 | 0.835 | 0.649 | 0.998 | 0.858 | 0.582 | 0.588 | 0.709 | 0.822 | 0.792 | 0.96 | 0.906 | 0.769 | 0.695 | 0.747 | 0.897 | 0.599 | 0.983 | 0.492 | 0.869
12 | Cc1c2c(nn1C)CSCc1cc(n(C)n1)CSc1cc(c3ccccc3c1)OCCCc1c(C(=O)O)n(C)c3c-2c(Cl)ccc13 [AZD5991] + CN(C)CCCOc1ccc(-c2ccc3ncc4c(c3c2)n(C2CCOCC2)c(=O)n4C)cn1 [AZD0156] (first compound max 1 µM, 7x7, partner max 1 µM) | 0.511 | 0.711 | 0.291 | 0.999 | 0.51 | 0.473 | 0.197 | 0.372 | 0.366 | 0.289 | 0.397 | 0.666 | 0.308 | 0.289 | 0.369 | 0.573 | 0.256 | 0.29 | 0.828 | 0.254
13 | COc1cccc2c1C(=O)c1c(O)c3c(c(O)c1C2=O)C[C@@](O)(C(=O)CO)C[C@@H]3O[C@H]1C[C@H](N)[C@H](O)[C@H](C)O1 [Doxorubicin] + Cc1cc2ncnn2cc1Nc1ncc2c(n1)n(C1CCOCC1)c(=O)n2C [AZD7648] (first compound max 1 µM, 7x7, partner max 10 µM) | 0.913 | 0.789 | 0.719 | 1 | 0.928 | 0.619 | 0.437 | 0.43 | 0.889 | 0.949 | 0.893 | 0.91 | 0.821 | 0.147 | 0.907 | 0.514 | 0.563 | 0.89 | 0.874 | 0.754
